Measurements reported in ChEMBL document CHEMBL1201862, “PubChem BioAssay data set” (2004).
The source made the active and inactive calls.

Assays:
[1] = target: T1, Zinc finger protein mex-5 (Caenorhabditis elegans, UniProt Q9XUB2); experiment: potency of MEX-5 RNA-binding blockers – biochemical, C. elegans, fluorescence polarization, dose response (AID 1960)
T1 sequence (Q9XUB2 whole entry): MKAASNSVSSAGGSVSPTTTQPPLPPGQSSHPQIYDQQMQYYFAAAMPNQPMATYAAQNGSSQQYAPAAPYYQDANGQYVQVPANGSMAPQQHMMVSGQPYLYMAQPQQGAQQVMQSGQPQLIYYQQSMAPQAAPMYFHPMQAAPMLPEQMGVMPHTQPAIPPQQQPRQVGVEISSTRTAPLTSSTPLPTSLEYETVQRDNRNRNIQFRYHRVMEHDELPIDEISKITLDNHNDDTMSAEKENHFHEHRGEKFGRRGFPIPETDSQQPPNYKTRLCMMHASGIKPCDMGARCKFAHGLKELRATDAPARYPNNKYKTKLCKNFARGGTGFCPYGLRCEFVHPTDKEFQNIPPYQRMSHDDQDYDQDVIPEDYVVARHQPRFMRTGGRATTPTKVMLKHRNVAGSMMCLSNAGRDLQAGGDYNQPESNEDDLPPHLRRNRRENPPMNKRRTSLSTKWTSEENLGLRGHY

[2] = target: T2, RNA-binding protein pos-1 (Caenorhabditis elegans, UniProt G5EF15); experiment: disruptors of C. elegans POS-1 RNA interaction – biochemical, fluorescence polarization, dose response (AID 1964);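 also: purified POS-1 fused to maltose binding protein made in E. coli; potency of compounds blocking POS-1 binding to fluorescent RNA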
T2 sequence (G5EF15 whole entry): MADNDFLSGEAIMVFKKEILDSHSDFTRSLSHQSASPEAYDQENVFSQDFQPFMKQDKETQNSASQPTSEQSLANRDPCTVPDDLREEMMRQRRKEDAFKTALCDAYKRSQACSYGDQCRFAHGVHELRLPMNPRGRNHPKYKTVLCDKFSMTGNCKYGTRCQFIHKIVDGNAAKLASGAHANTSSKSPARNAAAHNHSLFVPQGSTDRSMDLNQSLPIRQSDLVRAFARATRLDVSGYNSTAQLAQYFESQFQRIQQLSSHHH

Cytochrome P450 3A4 = Cytochrome P450 3A4 (Homo sapiens, UniProt P08684);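 also: CYP3A4 tested as one member of a cytochrome P450 panel screen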
Cytochrome P450 2C9 = Cytochrome P450 2C9 (Homo sapiens, UniProt P11712)
Cytochrome P450 2C19 = Cytochrome P450 2C19 (Homo sapiens, UniProt P33261); experiment: Cytochrome panel assay with activity outcomes. Panel member name: p450-cyp2c19 Compounds with AC50 equal or less than 10 uM are considered active; type: functional; details: read-out: AC50
[3] = Luminescence Cell-Based Dose Response HTS to Identify Activators of Luciferase Translation or Activity in H4 […] Cells. [Related pubchem assays: 1829 (Project Summary), 1814 (Primary HTS)]; type: functional
H4 = experiment: Luminescence Cell-Based Dose Response HTS to Identify Activators of 5'UTR Stem-Loop Driven Prion Protein mRNA Translation in H4 Neuroglioblastoma Cells. [Related pubchem assays: 1829 (Project Summary), 1814 (Primary HTS)]; type: functional; details: Homo sapiens
[4] = Luminescence Cell-Based Dose Retest to Confirm Inhibitors of Cancer Stem Cells. [Related pubchem assays (depositor defined):AID2717, AID2721]; type: functional; details: Homo sapiens
[5] = loss of viability in HepG2 cells – cell-based, CellTiter-Glo, cherry-picked, cytotoxicity control for Shn3 inhibitor project, dose response (AID 624134); type: functional
[6] = non-specific 3'UTR reporter inhibition in Clone20-Shn3RL – cell-based, Renilla luciferase, cherry-picked, counter-screen for Shn3 inhibitor project, dose response (AID 624133); type: functional
[7] = reduction of Shn3 3'UTR-driven luciferase in osteoblasts – cell-based, Clone20 osteoblasts, firefly luciferase, cherry-picked, dose response (AID 624132); type: functional;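 also: firefly luciferase luminescence from reporter carrying the Shn3 3'UTR in osteoblasts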
[8] = alpha-synuclein stem-loop luciferase translation blockers – H4 neuroglioma cells, luminescence, confirmation (AID 1988); type: functional, cell-based
[9] = luciferase reporter signal suppression in cells – H4 neuroglioma cells, luminescence, dose response (AID 1990); type: functional, cell-based
[10] = Luminescence Cell-Based Dose Response HTS to Identify Inhibitors of 5'UTR Stem-Loop Driven Prion Protein mRNA Translation in H4 Neuroglioblastoma Cells. [Related pubchem assays: 1827 (Project Summary), 1813 (Primary HTS)]; type: functional
INS1 = experiment: INS-1E survival protection against cytokine death – cell-based, luminescence, retest, dose response (AID 449756); type: functional; details: Rattus norvegicus;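 also: cell death triggered by IL-1 beta plus TNF-alpha plus IFN-gamma mixture; protective hits raise ATP signal compared with cytokine alone wells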
Nonstructural protein 1 = Nonstructural protein 1 (Influenza A virus, UniProt Q194T2); type: functional, Influenza A virus (A/California/07/2009(H1N1))
[11] = target: T3, Rac GTPase-activating protein 1 (Homo sapiens, UniProt Q9H0H5); experiment: blockers of MgcRacGAP-driven Rac1 GTP hydrolysis – biochemical, ADP Hunter fluorescence, primary and confirmatory, confirmation (AID 624330); type: functional
T3 sequence (Q9H0H5 whole entry): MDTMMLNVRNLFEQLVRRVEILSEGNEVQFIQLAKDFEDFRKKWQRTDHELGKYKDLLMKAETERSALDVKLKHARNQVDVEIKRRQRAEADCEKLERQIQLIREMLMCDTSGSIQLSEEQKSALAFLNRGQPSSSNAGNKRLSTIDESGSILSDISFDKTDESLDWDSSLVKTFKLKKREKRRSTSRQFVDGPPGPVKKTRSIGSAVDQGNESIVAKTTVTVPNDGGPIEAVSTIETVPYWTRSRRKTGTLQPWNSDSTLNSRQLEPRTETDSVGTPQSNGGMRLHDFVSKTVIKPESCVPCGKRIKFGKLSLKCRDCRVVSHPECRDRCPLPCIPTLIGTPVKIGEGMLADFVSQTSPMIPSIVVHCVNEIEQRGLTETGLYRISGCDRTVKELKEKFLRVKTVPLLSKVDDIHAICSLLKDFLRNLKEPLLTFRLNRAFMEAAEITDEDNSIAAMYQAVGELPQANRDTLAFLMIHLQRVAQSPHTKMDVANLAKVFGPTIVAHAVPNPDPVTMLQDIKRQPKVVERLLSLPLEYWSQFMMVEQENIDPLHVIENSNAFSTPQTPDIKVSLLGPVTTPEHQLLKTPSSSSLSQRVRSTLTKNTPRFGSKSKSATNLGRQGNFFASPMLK

[12] = viability of PTEN-deleted HCT116 cells – cell-based, HCT116 PTEN knockout, dose response (AID 1047); type: functional;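 also: HCT116 colon tumor cells with PTEN knocked out; cells exposed to compound for 60 hours before readout; potency for loss of cell viability measured by luminescence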
[13] = target: T4, Replicative DNA helicase DnaB (Mycobacterium tuberculosis, UniProt P9WMR3); experiment: DnaB intein splicing inhibitors, dose response, biochemical, cell-free fluorescence (AID 449749); type: functional
T4 sequence (P9WMR3 whole entry): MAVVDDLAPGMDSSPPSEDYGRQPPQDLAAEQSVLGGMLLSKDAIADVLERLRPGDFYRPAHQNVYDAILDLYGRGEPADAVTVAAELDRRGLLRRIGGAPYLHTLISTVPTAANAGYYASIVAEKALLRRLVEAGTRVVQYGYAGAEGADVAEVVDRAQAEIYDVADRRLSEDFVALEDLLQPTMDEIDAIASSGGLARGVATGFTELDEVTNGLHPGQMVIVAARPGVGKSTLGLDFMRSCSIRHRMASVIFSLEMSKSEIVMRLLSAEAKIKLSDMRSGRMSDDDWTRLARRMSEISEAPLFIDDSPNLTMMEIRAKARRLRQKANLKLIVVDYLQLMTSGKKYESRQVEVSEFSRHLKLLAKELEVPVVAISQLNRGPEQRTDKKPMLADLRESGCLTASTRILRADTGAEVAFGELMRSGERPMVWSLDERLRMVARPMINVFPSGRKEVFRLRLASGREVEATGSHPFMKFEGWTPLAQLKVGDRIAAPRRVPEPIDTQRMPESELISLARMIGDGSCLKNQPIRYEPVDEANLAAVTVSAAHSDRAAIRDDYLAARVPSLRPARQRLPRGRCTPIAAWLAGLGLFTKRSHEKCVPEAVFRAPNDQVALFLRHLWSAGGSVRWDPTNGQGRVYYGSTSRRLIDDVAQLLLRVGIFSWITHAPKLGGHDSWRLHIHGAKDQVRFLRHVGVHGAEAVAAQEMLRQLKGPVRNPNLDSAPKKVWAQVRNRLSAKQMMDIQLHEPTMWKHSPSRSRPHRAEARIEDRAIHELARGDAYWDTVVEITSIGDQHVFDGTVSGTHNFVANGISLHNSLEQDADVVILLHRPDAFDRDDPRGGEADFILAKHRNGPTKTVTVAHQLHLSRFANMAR

Protein RecA = target: T5, Protein RecA (Mycobacterium tuberculosis, UniProt P9WHJ3); experiment: Fluorescence Cell-Free Homogeneous Dose Retest to Identify Inhibitors of RecA-Intein Splicing Activity. [Related pubchem assays (depositor defined):AID2097, AID2223, AID489010, AID492950]; type: functional
T5 sequence (P9WHJ3 whole entry): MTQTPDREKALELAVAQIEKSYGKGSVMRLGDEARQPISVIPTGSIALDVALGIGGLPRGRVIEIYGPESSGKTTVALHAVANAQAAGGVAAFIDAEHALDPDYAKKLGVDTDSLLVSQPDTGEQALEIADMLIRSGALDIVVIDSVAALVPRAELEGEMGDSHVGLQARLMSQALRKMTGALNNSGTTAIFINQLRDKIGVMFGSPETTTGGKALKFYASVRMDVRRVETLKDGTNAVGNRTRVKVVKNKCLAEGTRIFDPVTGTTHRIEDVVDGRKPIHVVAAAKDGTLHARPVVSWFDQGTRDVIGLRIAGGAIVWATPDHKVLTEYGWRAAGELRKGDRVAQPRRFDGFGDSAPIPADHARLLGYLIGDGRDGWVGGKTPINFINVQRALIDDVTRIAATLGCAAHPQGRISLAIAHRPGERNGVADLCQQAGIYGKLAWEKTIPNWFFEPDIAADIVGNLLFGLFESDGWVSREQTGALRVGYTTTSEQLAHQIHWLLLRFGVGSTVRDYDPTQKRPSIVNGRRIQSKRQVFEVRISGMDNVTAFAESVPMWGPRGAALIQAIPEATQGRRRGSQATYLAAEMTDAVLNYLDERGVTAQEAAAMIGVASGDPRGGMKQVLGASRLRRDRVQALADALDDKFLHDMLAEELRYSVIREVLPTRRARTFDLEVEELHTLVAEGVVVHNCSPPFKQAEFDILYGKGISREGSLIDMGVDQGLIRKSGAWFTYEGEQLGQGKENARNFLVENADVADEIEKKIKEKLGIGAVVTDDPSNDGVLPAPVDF

[14] = viability of HCT116 lacking mutant beta-catenin – cell-based, human colon tumor, dose response (AID 1045); type: functional;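 also: HCT116 colon tumor cells with beta catenin knocked out; cells exposed to compound for 60 hours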
[15] = microbe, parasite or virus in culture; type: functional; details: Mycobacterium tuberculosis

Sequence of Nonstructural protein 1 (Q194T2 whole entry): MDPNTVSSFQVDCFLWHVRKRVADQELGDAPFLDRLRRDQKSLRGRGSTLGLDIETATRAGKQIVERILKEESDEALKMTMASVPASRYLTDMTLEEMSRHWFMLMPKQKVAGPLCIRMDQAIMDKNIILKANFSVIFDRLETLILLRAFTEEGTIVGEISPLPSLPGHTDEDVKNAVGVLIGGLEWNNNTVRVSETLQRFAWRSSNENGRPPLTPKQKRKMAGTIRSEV
Sequence of Cytochrome P450 2C19 (P33261 whole entry): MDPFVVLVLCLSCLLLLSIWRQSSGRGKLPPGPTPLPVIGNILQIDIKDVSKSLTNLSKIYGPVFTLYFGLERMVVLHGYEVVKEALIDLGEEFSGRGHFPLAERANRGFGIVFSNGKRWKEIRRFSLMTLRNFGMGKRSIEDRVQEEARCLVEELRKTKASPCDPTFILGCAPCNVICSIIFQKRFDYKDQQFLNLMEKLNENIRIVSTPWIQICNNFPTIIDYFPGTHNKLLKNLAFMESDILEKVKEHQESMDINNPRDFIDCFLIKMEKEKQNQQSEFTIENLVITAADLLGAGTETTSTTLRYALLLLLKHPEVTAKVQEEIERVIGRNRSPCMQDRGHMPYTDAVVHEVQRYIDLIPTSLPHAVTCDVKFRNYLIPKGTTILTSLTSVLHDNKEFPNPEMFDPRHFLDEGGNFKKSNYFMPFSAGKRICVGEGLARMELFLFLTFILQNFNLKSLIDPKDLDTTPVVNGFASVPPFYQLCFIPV
Sequence of Cytochrome P450 2C9 (P11712 whole entry): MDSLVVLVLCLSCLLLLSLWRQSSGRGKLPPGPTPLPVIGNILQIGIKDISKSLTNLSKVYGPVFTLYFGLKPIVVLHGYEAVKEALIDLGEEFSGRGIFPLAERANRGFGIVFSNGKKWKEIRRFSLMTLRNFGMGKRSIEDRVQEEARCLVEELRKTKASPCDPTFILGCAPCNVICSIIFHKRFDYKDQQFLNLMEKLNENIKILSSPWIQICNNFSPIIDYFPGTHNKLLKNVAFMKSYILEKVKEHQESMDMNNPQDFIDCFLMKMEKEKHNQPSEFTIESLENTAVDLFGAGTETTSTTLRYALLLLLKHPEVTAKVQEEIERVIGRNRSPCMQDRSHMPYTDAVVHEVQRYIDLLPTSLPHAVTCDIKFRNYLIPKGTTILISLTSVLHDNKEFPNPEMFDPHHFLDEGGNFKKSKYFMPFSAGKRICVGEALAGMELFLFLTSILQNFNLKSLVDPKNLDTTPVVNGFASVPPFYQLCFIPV
Sequence of Cytochrome P450 3A4 (P08684 whole entry): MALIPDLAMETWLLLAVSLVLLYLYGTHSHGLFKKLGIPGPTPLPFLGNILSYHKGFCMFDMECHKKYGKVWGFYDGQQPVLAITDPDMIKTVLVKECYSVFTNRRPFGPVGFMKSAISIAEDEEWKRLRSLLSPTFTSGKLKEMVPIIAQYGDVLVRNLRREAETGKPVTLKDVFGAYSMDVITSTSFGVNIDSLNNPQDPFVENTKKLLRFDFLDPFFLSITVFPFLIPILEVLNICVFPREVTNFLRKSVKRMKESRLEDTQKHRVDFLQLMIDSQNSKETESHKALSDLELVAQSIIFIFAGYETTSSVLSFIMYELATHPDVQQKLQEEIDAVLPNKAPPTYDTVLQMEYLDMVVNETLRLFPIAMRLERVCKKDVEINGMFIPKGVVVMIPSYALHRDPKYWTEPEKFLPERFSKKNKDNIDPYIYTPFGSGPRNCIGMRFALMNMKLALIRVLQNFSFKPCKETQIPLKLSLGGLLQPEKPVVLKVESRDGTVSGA

COc1ccc(C2C(C#N)=C(N)OC3=C2C(=O)CC(C)(C)C3)cc1 (centres undefined)
EC50 [1]: > 300 µM (not active)
EC50 [2]: 69.7 µM (active)

Cn1c2ccccc2c2cc(C(=O)N3CCOCC3)sc21
AC50 (Cytochrome P450 3A4): 28.2 µM (inconclusive)
AC50 (Cytochrome P450 2C9): inconclusive
AC50 (Cytochrome P450 2C19): 39.8 µM (inconclusive)

CCOc1ccccc1N/C=C(\C#N)c1nc2ccccc2n1C
EC50 [3]: > 120 µM (not active)
EC50 (H4): > 120 µM (not active)

COc1ccc(/C=C2\SC(=S)N(CCCC(=O)NC3CCCC3)C2=O)cc1OC
EC50 [1]: 55.7 µM (inconclusive)
EC50 [2]: 57.5 µM (active)

CC(=O)c1ccc(Oc2ncnc3sccc23)cc1
EC50 [3]: 9.03 µM (active)
EC50 (H4): 33.2 µM (active)

COc1ccc(-c2nc(C#N)c(NCc3ccco3)o2)cc1
EC50 [3]: 31.9 µM (active)
EC50 (H4): 7.92 µM (active)

COc1ccccc1C(CCNCc1ccc(N(C)C)cc1)c1ccc(OC(C)C)cc1 (centres undefined)
AC50 [4]: 5.31 µM (active)
AC50 [5]: 12.5 µM (active)
AC50 [6]: 12 µM (active)
AC50 [7]: 6.48 µM (active)
EC50 [8]: 7.66 µM (active)
EC50 [9]: > 60 µM (not active)
EC50 [10]: > 120 µM (not active)
AC50 (INS1): 7.11 µM (active)
IC50 (Nonstructural protein 1): 8.29 µM (active)

COCCCNCCCCOc1c(Cl)cc(C)cc1Br.O=C(O)C(=O)O
AC50 (Cytochrome P450 2C9): inconclusive
IC50 [11]: 64.1 µM (active)

CCOC(=O)N1CCN(C2=Nc3cccc4cccc2c34)CC1
EC50 [1]: 60.2 µM (active)
EC50 [2]: > 300 µM (not active)

CCCCCc1cc(=O)oc2c(C(CCN3CCCC3)c3ccc(N(C)C)cc3)c(OC)cc(OC)c12 (centres undefined)
IC50 (Nonstructural protein 1): 6.41 µM (active)

O=C(Nc1nnc(SCc2c(Cl)cccc2Cl)s1)C1CCCO1 (centres undefined)
AC50 (Cytochrome P450 2C9): inconclusive
AC50 (Cytochrome P450 2C19): 14.1 µM (inconclusive)

Cc1ccc(C(=O)NC(=S)Nc2ccc3c(c2)OCCO3)c(C)c1
AC50 (Cytochrome P450 2C9): inconclusive
AC50 (Cytochrome P450 2C19): 17.8 µM (inconclusive)

COc1ccc(OC)c(N2C(=O)NC(=O)/C(=C\c3c[nH]c4ccccc34)C2=O)c1
EC50 [1]: > 300 µM (not active)
EC50 [2]: > 300 µM (not active)

N=c1c2c(-c3ccccc3)c(-c3ccccc3)n(Cc3ccco3)c2ncn1Cc1ccccc1
EC50 [12]: 1.68 µM (active)
AC50 [13]: 3.08 µM (active)
EC50 (Protein RecA): 6.7 µM (active)
AC50 (INS1): 6.08 µM (active)
EC50 [14]: 1.35 µM (active)

O=S(=O)(c1ccccc1)N1CCC2(CC1)CN(c1ccncc1)C2
AC50 (Cytochrome P450 3A4): 39.8 µM (inconclusive)
AC50 (Cytochrome P450 2C9): inconclusive

COc1ccc(C2Oc3ccccc3C3=C2C(c2cccs2)n2ncnc2N3)cc1 (centres undefined)
EC50 [12]: 8.88 µM (active)
CC50 [15]: 16.8 µM (active)
EC50 [14]: 7.97 µM (active)

Cc1ccc(C)n1-c1ccc(C(=O)O)cc1
EC50 [1]: 20.5 µM (inconclusive)
EC50 [2]: 13.9 µM (active)

Cc1ccc(-n2nc(C)c(/C=N/NC(=O)c3ccc(O)cc3O)c2O)cc1
EC50 [1]: 22 µM (active)
EC50 [2]: 76.9 µM (active)
IC50 (Nonstructural protein 1): 4.44 µM (active)

CC1=C/C(=N\Nc2ccccc2[N+](=O)[O-])CC(C)(C)C1
IC50 (Nonstructural protein 1): 14.9 µM (active)

COc1ccc(Cc2nnc(N/N=C/c3ccccc3O)nc2O)cc1OC
AC50 [4]: 3.66 µM (active)
AC50 (INS1): 0.834 µM (active)
IC50 (Nonstructural protein 1): 1.42 µM (active)

COc1cc(/C=N/NC(=O)CN2CC(c3ccccc3)CC2=O)ccc1OC(=O)N(C)C (centres undefined)
AC50 (Cytochrome P450 2C9): inconclusive
AC50 (Cytochrome P450 2C19): 22.4 µM (inconclusive)
